Assay results published in the supplement of paper PMC10307832.

Tests used:
Experiment in all cases: relative viability (nuclei count vs DMSO), 5 days (fraction); higher = more cells survive
[1] = compound: O[C@H]1CC[C@H](Nc2ncc3nc(Nc4c(F)cc(F)cc4F)n([C@H]4CCOC4)c3n2)CC1 [Tanzisertib] + Cc1cc(Nc2cc(N3CCN(C)CC3)nc(Sc3ccc(NC(=O)C4CC4)cc3)n2)n[nH]1 [Tozasertib] (partner 0.1 µM)
In short: (§1)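 Relative viability equals treated-well nuclei counts divided by vehicle-well nuclei counts. Counts came from 4× images of lung cancer cell lines grown in 1536-well plates for 5 days after pin-tool dosing on the day after seeding. Dosing used one drug alone or a fixed anchor-drug dose plus five library-drug doses (not always all listed) in √10 steps, and values are medians of duplicate plates.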

[2] = compound: C[C@@H](N)c1ccc(C(=O)Nc2ccnc3[nH]ccc23)cc1 + CS(=O)(=O)CCNCc1ccc(-c2ccc3ncnc(Nc4ccc(OCc5cccc(F)c5)c(Cl)c4)c3c2)o1 [Lapatinib] (partner 2 µM)
In short: as §1

[3] = compound: C1CNCCC1C2=CC(=NN2)C3=CC=NC=C3 + C[C@@H](Oc1cc(-c2cnn(C3CCNCC3)c2)cnc1N)c1c(Cl)ccc(F)c1Cl [Crizotinib] (partner 1 µM)
In short: as §1

[4] = compound: O[C@H]1CC[C@H](Nc2ncc3nc(Nc4c(F)cc(F)cc4F)n([C@H]4CCOC4)c3n2)CC1 [Tanzisertib] + C[C@]1(O)C[C@@H](c2nc(-c3ccc4ccc(-c5ccccc5)nc4c3)c3c(N)nccn32)C1 [Linsitinib] (partner 1 µM)
In short: as §1

| Cell Line | relative viability ([1]; first compound 0.08 µM) | relative viability ([1]; first compound 0.253 µM) | relative viability ([1]; first compound 0.8 µM) | relative viability ([1]; first compound 2.53 µM) | relative viability ([1]; first compound 8 µM) | relative viability ([2]; first compound 0.04 µM) | relative viability ([2]; first compound 0.1265 µM) | relative viability ([2]; first compound 0.4 µM) | relative viability ([2]; first compound 1.265 µM) | relative viability ([2]; first compound 4 µM) | relative viability ([3]; first compound 0.08 µM) | relative viability ([3]; first compound 0.8 µM) | relative viability ([3]; first compound 2.53 µM) | relative viability ([3]; first compound 8 µM) | relative viability ([4]; first compound 0.08 µM) | relative viability ([4]; first compound 0.253 µM) | relative viability ([4]; first compound 0.8 µM) | relative viability ([4]; first compound 2.53 µM) | relative viability ([4]; first compound 8 µM) |
| --- | --- | --- | --- | --- | --- | --- | --- | --- | --- | --- | --- | --- | --- | --- | --- | --- | --- | --- | --- |
| 201T | 0.989 | 0.923 | 0.943 | 0.866 | 0.875 | 1 | 0.989 | 1.09 | 0.971 | 1.24 | 1.01 | 1.01 | 1.02 | 0.991 | 1.02 | 1.01 | 0.969 | 1.01 | 0.956 |
| A549 |  |  |  |  |  | 1.1 | 0.895 | 1.06 | 0.924 | 0.53 | 0.784 | 0.849 | 0.857 | 0.797 | 0.736 | 0.551 | 0.703 | 0.623 | 0.533 |
| A-427 | 0.244 | 0.196 | 0.214 | 0.198 | 0.2 | 0.968 | 1.07 | 1 |  | 0.885 | 0.874 | 0.93 | 0.944 | 0.846 | 1.15 | 1.11 | 1.14 | 1.07 | 1.17 |
| ABC-1 | 0.165 | 0.197 | 0.175 | 0.137 | 0.134 | 1.16 | 1.02 | 1.2 |  | 1.36 | 0.988 | 1.12 | 1.04 | 1.18 | 0.728 | 0.65 | 1.07 | 0.977 | 0.736 |
| BEN | 0.464 | 0.451 | 0.621 | 0.418 | 0.407 | 0.706 | 0.675 | 0.99 | 0.781 | 0.438 | 0.644 | 0.87 | 0.878 | 0.823 | 0.875 | 0.916 | 1.11 | 0.984 | 0.904 |
| CAL-12T | 0.361 | 0.409 | 0.307 | 0.264 | 0.266 | 0.801 | 0.811 | 0.886 |  | 0.875 | 0.473 | 0.74 | 0.716 | 0.774 | 0.896 | 0.769 | 0.882 | 0.977 | 0.817 |
| COR-L23 | 0.201 | 0.228 | 0.184 | 0.189 | 0.121 | 0.948 | 1.01 | 0.897 | 0.895 | 0.576 | 0.651 | 0.615 | 0.719 | 0.695 | 1.09 | 0.874 | 0.896 | 1.02 | 0.934 |
| COR-L 105 | 0.386 | 0.366 | 0.323 | 0.388 | 0.331 | 0.305 | 0.355 | 0.376 | 0.257 | 0.364 | 0.649 | 0.982 | 0.799 | 0.906 | 1.13 | 0.78 | 0.895 | 1.12 | 0.77 |
| Calu-6 |  |  |  |  |  | 1.09 | 1.08 | 1.1 | 0.902 | 0.832 | 0.838 | 0.91 | 0.833 | 0.814 | 1.09 | 0.862 | 0.957 | 1.02 | 0.928 |
| ChaGo-K-1 | 0.251 | 0.227 | 0.216 | 0.218 | 0.217 |  |  |  |  |  | 0.926 | 1.15 | 1.08 | 1.09 |  |  |  |  |  |
| EBC-1 |  |  |  |  |  | 0.265 | 0.239 | 0.219 | 0.179 | 0.171 | 0.202 | 0.219 | 0.233 | 0.192 | 1.29 | 0.876 | 0.846 | 0.899 | 0.783 |
| EKVX | 0.403 | 0.395 | 0.407 | 0.36 | 0.377 | 0.223 | 0.224 | 0.242 | 0.224 | 0.215 | 1.05 | 0.807 | 0.956 | 0.925 | 0.953 | 1.02 | 1.04 | 1.02 | 0.822 |
| EMC-BAC-2 | 0.268 | 0.275 | 0.262 | 0.277 | 0.277 | 0.86 | 0.896 | 0.898 | 0.986 | 0.897 | 0.705 | 0.772 | 0.751 | 0.793 | 0.825 | 0.806 | 0.825 | 0.743 | 0.771 |
| EPLC-272H | 0.308 | 0.183 | 0.326 | 0.303 | 0.171 | 1 | 0.914 | 1.1 |  | 0.668 | 0.922 | 0.937 | 0.91 | 0.867 | 1.46 | 1.18 | 1.19 | 1.12 | 1.08 |
| H3255 | 0.736 | 0.607 | 0.675 | 0.588 | 0.427 | 0.306 | 0.304 | 0.302 | 0.334 | 0.306 | 0.891 | 0.816 | 1.02 | 0.609 | 0.966 | 0.841 | 0.983 | 0.907 | 0.636 |
| HARA | 0.136 | 0.112 | 0.109 | 0.0917 | 0.103 | 0.829 | 0.904 | 0.79 | 0.803 | 0.702 | 1.05 | 1.08 | 1.05 | 1.03 | 0.842 | 0.572 | 0.901 | 0.892 | 0.987 |
| HCC-15 | 0.535 | 0.294 | 0.391 | 0.4 | 0.27 | 0.827 | 0.789 | 0.854 |  | 0.785 | 0.805 | 0.928 | 0.839 | 0.779 | 1.05 | 0.833 | 0.896 | 0.786 | 0.924 |
| HCC-44 | 1.05 | 0.913 | 1.04 | 0.976 | 1.02 | 1.09 | 1.02 | 1.04 | 1.18 | 0.916 | 0.889 | 0.908 | 0.842 | 0.839 | 0.683 | 0.74 | 0.673 | 0.602 | 0.724 |
